According to the RepoRT retention time repository (doi:10.1007/s11306-011-0298-z):
Structures can show the parent of a compound that is named as a salt.

Assay: RP, Waters ACQUITY UPLC HSS T3, 100 × 2.1 mm, 1.8 µm, 30 °C, 0.3 mL/min, estimated dead time 0.73 min; A: water + 0.1% formic acid, pH 3; B: methanol + 0.1% formic acid, pH 3; gradient (min/%B) 0/0 6/0 56/100 60/100
Settings: stereoisomer not certain

| SMILES | LC retention time |
| --- | --- |
| CC1OC(OC2C(Oc3cc(O)c4c(c3)OC(c3ccc(O)cc3)CC4=O)OC(CO)C(O)C2O)C(O)C(O)C1O (configuration not stated) [naringin] | 28.6 min |
| NC(=O)c1cccnc1 [nicotinamide] | 3.79 min |
| CN1CCCC1c1cccnc1 (configuration not stated) [nicotine] | 4.64 min |
| Nc1ncnc2c1ncn2C1OC(COP(=O)(O)OP(=O)(O)OCC2OC([n+]3cccc(C(=O)O)c3)C(O)C2O)C(O)C1O (configuration not stated) [nicotinic acid adenin dinucleotide] | 8.3 min |
| O=C(O)c1ccc[n+](C2OC(COP(=O)([O-])O)C(O)C2O)c1 (configuration not stated) [nicotinic acid mononucleotide] | 2.1 min |
| O=C(O)c1cccnc1 [nicotinic acid] | 2.98 min |
| CCCCCCCCC(=O)O [nonanoic acid] | 43.1 min |
| O=C(O)C=Cc1ccccc1O [o-coumaric acid] | 28.1 min |
| CCCCCCCC(=O)O [octanoic acid] | 40 min |
| CCCCCCCCC=CCCCCCCCC(=O)O [oleic acid] | 54.9 min |
| O=c1cc(-c2ccc(O)c(O)c2)oc2c(C3OC(CO)C(O)C(O)C3O)c(O)cc(O)c12 (configuration not stated) [orientin] | 25.5 min |
| Oc1ccc(C2c3c(O)cc(O)cc3C3C(c4ccc(O)cc4)c4c(O)cc(O)cc4C23)cc1 (configuration not stated) [pallidol] | 25.9 min |
| CCCCCCCCCCCCCCCC(=O)O [palmitic acid] | 54.4 min |
| OCC1OC(Oc2cc3c(OC4OC(CO)C(O)C(O)C4O)cc(O)cc3[o+]c2-c2ccc(O)cc2)C(O)C(O)C1O (configuration not stated) [pelargonidin-3,5-diglucoside] | 19.6 min |
| OCC1OC(Oc2cc3c(O)cc(O)cc3[o+]c2-c2ccc(O)cc2)C(O)C(O)C1O (configuration not stated) [pelargonidin-3-glucoside] | 23.7 min |
| O=c1c(OC2OC(COC3OCC(O)C(O)C3O)C(O)C(O)C2O)c(-c2ccc(O)c(O)c2)oc2cc(O)cc(O)c12 (configuration not stated) [peltatoside] | 28.3 min |
| COc1cc(-c2[o+]c3cc(O)cc(OC4OC(CO)C(O)C(O)C4O)c3cc2OC2OC(CO)C(O)C(O)C2O)ccc1O (configuration not stated) [peonidin 3,5 diglucoside] | 20.2 min |
| COc1cc(-c2oc3cc(=O)cc(O)c-3cc2OC2OC(COC(=O)C=Cc3ccc(O)cc3)C(O)C(O)C2O)ccc1O (configuration not stated) [peonidin-3-O-(6-p-coumaroyl)-glucoside] | 33 min |
| COc1cc(-c2[o+]c3cc(O)cc(O)c3cc2OC2OCC(O)C(O)C2O)ccc1O (configuration not stated) [peonidin-3-arabinoside] | 24.8 min |

| SMILES | LC retention time |
| --- | --- |
| COc1cc(-c2[o+]c3cc(O)cc(O)c3cc2OC2OC(CO)C(O)C(O)C2O)cc(O)c1O (configuration not stated) [petunidin-3-glucoside] | 22.9 min |
| NCCc1ccccc1 [phenethylamine] | 12.1 min |
| COC1C(O)C(O)C(O)C(O)C1O (configuration not stated) [pinitol] | 1.41 min |
| O=C(O)C1CNCCN1 (configuration not stated) [piperazine carboxylic acid] | 1.19 min |
| C1CCNCC1 [piperidine hydrochloride] | 2.5 min |
| Oc1cc(O)c2c(c1)OC(c1ccc(O)c(O)c1)C(O)C2c1c(O)cc(O)c2c1OC(c1ccc(O)c(O)c1)C(O)C2 (configuration not stated) [procyanidin B1] | 18.1 min |
| Oc1cc(O)c2c(c1)OC1(c3ccc(O)c(O)c3)Oc3cc(O)c4c(c3C2C1O)OC(c1ccc(O)c(O)c1)C(O)C4 (configuration not stated) [procyanidin-A2] | 25.2 min |
| CCCN [propylamine] | 1.5 min |
| Cc1ncc(COP(=O)(O)O)c(C=O)c1O [pyridoxal 5-phosphate] | 3.99 min |
| Cc1ncc(COP(=O)(O)O)c(CN)c1O [pyridoxamine 5-phosphate] | 1.41 min |
| Cc1ncc(CO)c(CN)c1O [pyridoxamine] | 1.42 min |
| Oc1ccccc1O [pyrocatechol] | 13 min |
| C1CCNC1 [pyrrolidine] | 1.5 min |
| O=c1c(OC2OC(CO)C(O)C(O)C2O)c(-c2ccc(OC3OC(CO)C(O)C(O)C3O)c(O)c2)oc2cc(O)cc(O)c12 (configuration not stated) [quercetin 3,4'-diglucoside] | 26.1 min |
| O=c1c(OC2OC(C(O)CO)C(O)C2O)c(-c2ccc(O)c(O)c2)oc2cc(O)cc(O)c12 (configuration not stated) [quercetin 3-glucoside] | 29.1 min |
| O=C(O)C1OC(Oc2c(-c3ccc(O)c(O)c3)oc3cc(O)cc(O)c3c2=O)C(O)C(O)C1O (configuration not stated) [quercetin 3-glucuronide] | 28.4 min |
| O=c1c(OS(=O)(=O)O)c(-c2ccc(O)c(O)c2)oc2cc(O)cc(O)c12 [quercetin 3-sulfate] | 27.4 min |
| O=c1c(OC2OC(CO)C(O)C(O)C2O)c(-c2ccc(O)c(O)c2)oc2cc(O)cc(O)c12 (configuration not stated) [quercetin-3-galactoside] | 28.9 min |
| O=c1c(O)c(-c2ccc(O)c(O)c2)oc2cc(O)cc(O)c12 [quercetin] | 34 min |

Other lines, results leading:

| LC retention time | SMILES |
| --- | --- |
| 33.8 min | O=C1CC(c2ccc(O)cc2)Oc2cc(O)cc(O)c21 (configuration not stated) [naringenin] |
| 37.6 min | CCCCCCCCOC1OC(CO)C(O)C(O)C1O (configuration not stated) [octyl glucopyranoside] |
| 27.6 min | CCCCCCCCN [octylamine] |
| 1.3 min | O=C(O)C(=O)O [oxalic acid] |
| 33.2 min | COc1cc(-c2oc3cc(=O)cc4oc(O)cc(c2OC2OC(CO)C(O)C(O)C2O)c43)cc(OC)c1O (configuration not stated) [oxovitisin A] |
| 24.3 min | O=C(O)/C=C/c1ccc(O)cc1 [p-coumaric acid] |
| 24 min | COc1cc(-c2[o+]c3cc(O)cc(O)c3cc2OC2OC(CO)C(O)C(O)C2O)ccc1O (configuration not stated) [peonidin 3-galactoside] |
| 29.7 min | COc1cc(-c2[o+]c3cc(O)cc(O)c3cc2O)cc(O)c1O [petunidin] |
| 29.6 min | O=C(CCc1ccc(O)cc1)c1c(O)cc(O)cc1OC1OC(CO)C(O)C(O)C1O (configuration not stated) [phloridzin] |
| 40.7 min | O=C(C=CC=Cc1ccc2c(c1)OCO2)N1CCCCC1 [piperine] |
| 26.7 min | O=C(O)c1ccc2c(c1)OCO2 [piperonylic acid] |
| 13.9 min | O=C(O)c1ccc(O)c(O)c1 [protocatechuic acid] |
| 41.4 min | COc1cc(C=Cc2ccc(O)cc2)cc(OC)c1 [pterostilbene] |
| 3.77 min | Cc1ncc(CO)c(C=O)c1O [pyridoxal] |
| 4.9 min | Cc1ncc(CO)c(CO)c1O [pyridoxine] |
| 1.79 min | CC(=O)C(=O)O [pyruvic acid] |
| 29.1 min | CC1OC(OCC2OC(Oc3c(-c4ccc(O)c(O)c4)oc4cc(O)cc(O)c4c3=O)C(O)C(O)C2O)C(O)C(O)C1O (configuration not stated) [quercetin 3-rutinoside] |
| 30.4 min | O=c1c(O)c(-c2ccc(OC3OC(CO)C(O)C(O)C3O)c(O)c2)oc2cc(O)cc(O)c12 (configuration not stated) [quercetin 4'-glucoside] |
| 31 min | CC(=O)OCC1OC(Oc2c(-c3ccc(O)c(O)c3)oc3cc(O)cc(O)c3c2=O)C(O)C(O)C1O (configuration not stated) [quercetin-3-O-glucose-6''-acetate] |
